T1: Alcohol dehydrogenase (ADH) (Saccharomyces cerevisiae, UniProt P00330)
T1 construct: gene ADH1
T1 sequence (P00330 2-348): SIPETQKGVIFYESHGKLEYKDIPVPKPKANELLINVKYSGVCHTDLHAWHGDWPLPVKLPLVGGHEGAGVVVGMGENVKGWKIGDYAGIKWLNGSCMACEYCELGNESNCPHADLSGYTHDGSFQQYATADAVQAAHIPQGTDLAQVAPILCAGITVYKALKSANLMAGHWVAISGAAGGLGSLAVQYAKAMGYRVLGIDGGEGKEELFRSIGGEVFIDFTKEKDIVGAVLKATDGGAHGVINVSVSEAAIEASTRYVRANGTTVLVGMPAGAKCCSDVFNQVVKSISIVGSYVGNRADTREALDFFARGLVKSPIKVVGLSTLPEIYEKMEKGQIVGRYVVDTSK


Assays:
[1] = target: T1, Alcohol dehydrogenase (ADH); test: NADH absorbance at […] nm, dose-response; free ADH (IC50 […] on immobilized ADH HNFs); format: biochemical
[2] = target: T1, Alcohol dehydrogenase (ADH); test: NADH absorbance at […] nm, immobilized ADH nanoflowers, % inhibition at […]; format: biochemical
[3] = target: T1, Alcohol dehydrogenase (ADH); test: NADH absorbance at […] nm, immobilized ADH nanoflowers, % inhibition at […] (weak); format: biochemical
purified protein = substrate: NC(=O)c1ccc[n+]([C@@H]2O[C@H](COP(=O)([O-])OP(=O)(O)OC[C@H]3O[C@@H](n4cnc5c(N)ncnc54)[C@H](O)[C@@H]3O)[C@@H](O)[C@H]2O)c1; test: purified protein; format: biochemical, Saccharomyces cerevisiae; conditions: Zn2+

Molecule	inhibition at 1500 µM ([2]; read-out: Inhibition (%)) [%]	inhibition at 1500 µM [2] [%]	further results
CNC(=C[N+](=O)[O-])NCCSCc1ccc(CN(C)C)o1 [ranitidine]	–	–	IC50 [1]: 390 µM
O=c1oc2c(O)c(O)cc3c(=O)oc4c(O)c(O)cc1c4c23 [ellagic acid]	58.2 ± 10.3	–	–
O=C1C[C@@H](c2ccc(O)cc2)Oc2cc(O)cc(O)c21 [naringenin]	–	75.5 ± 2.1	–
O=C(O)c1ccc(O)c(O)c1 [protocatechuic acid]	–	68.3 ± 2.9	–
COc1cc(C(=O)O)ccc1O [vanillic acid]	–	55.1 ± 1	–
Oc1cc(O)c2c(c1)O[C@H](c1ccc(O)c(O)c1)[C@@H](O)C2 [Cianidanol]	–	–	inhibition at 1500 µM [3]: 34.9 ± 4%
O=c1cc(-c2ccc(O)cc2)oc2cc(O)cc(O)c12 [apigenin]	52.5 ± 5.5	–	–
O=C(O)c1cc(O)c(O)c(O)c1 [gallic acid]	61.9 ± 2.8	–	–
Alcohol dehydrogenase (ADH) (Saccharomyces cerevisiae S288C) (protein) SIPETQKGVIFYESHGKLEYKDIPVPKPKANELLINVKYSGVCHTDLHAWHGDWPLPVKLPLVGGHEGAGVVVGMGENVKGWKIGDYAGIKWLNGSCMACEYCELGNESNCPHADLSGYTHDGSFQQYATADAVQAAHIPQGTDLAQVAPILCAGITVYKALKSANLMAGHWVAISGAAGGLGSLAVQYAKAMGYRVLGIDGGEGKEELFRSIGGEVFIDFTKEKDIVGAVLKATDGGAHGVINVSVSEAAIEASTRYVRANGTTVLVGMPAGAKCCSDVFNQVVKSISIVGSYVGNRADTREALDFFARGLVKSPIKVVGLSTLPEIYEKMEKGQIVGRYVVDTSK	–	–	Km (purified protein): 5.33 mM
